How the values were obtained:
TRPA1 [1] = experiment: Whole cell voltage-clamp, TRPA1 CHO cells; assay type: cell-based; conditions: MG 0.5 mM (Fig. 1B)
Procedure: (§1) DRG neurons and TRPA1 CHO cells were studied under voltage-clamp conditions using an Axopatch 200B amplifier and pClamp 10.0 software (Molecular Devices, Sunnyvale, CA). Except where stated otherwise, whole cell recordings were performed at a holding potential of –60 mV using an extracellular solution with the composition described above for [Ca^2+]i measurements. Borosilicate glass pipettes (2–5 MΩ, 75–80% series resistance compensation) were filled with (in mM) 140 KCl, 1 CaCl2, 2 MgATP, 10 EGTA, and 10 HEPES buffered to pH 7.4 (KOH). Excised inside-out patches were recorded using a Ca^2+-free solution containing (in mM) 140 NaCl, 5 KCl, 1 MgCl2, 10 HEPES and 1 EGTA, pH 7.4 (NaOH) in the pipettes and perfused with 140 KCl, 2 MgATP, 1 EGTA, and 10 HEPES (pH 7.4). DRG neurons were studied using an intracellular solution containing (in mM) 140 CsCl, 1 CaCl2, 2 MgATP, 10 EGTA and 10 HEPES, pH 7.4 (CsOH). Drugs were applied by local microperfusion with a rapid solution changer (RSC-200, Biologic, Claix, France).

[2] = tested on: human TRPA1 C621S, C641S or C665S; experiment: [Ca2+]i-responses of human TRPA1 point mutants C621S, C641S, C665S; assay type: cell-based; conditions: human TRPA1 single point mutants vs wildtype
Procedure: (§2) Untransfected CHO cells and CHO cells expressing mouse or human TRPA1 were grown in MEM Glutamax or AQ medium supplemented with penicillin (100 U/ml), streptomycin (100 µg/ml), and FCS (10%). Plasmids encoding mutated TRPA1 channels were kindly provided by Dr. Ardem Patapoutian. All media, serum and antibiotics were from Invitrogen (Paisley, UK) or Sigma (Poole, UK).
(§3) Cells were loaded with 2 µM Fura-2 AM (Molecular Probes, Paisley, UK) in the presence of 1 mM probenecid for ∼1 hr. The experiments were performed in a physiological saline solution containing (in mM) 140 NaCl, 5 KCl, 10 glucose, 10 HEPES, 2 CaCl2, and 1 MgCl2, buffered to pH 7.4 with NaOH. Compounds were applied to cells by local continuous microperfusion of solution through a fine tube placed in close proximity of the cells studied. Images of a group of cells were captured every 2 sec using 340 and 380 nm excitation wavelengths with emission measured at 520 nm with a microscope based imaging system (PTI, New Jersey). […]
(§4) Changes in intracellular calcium ([Ca^2+]i) in response to agonists were determined in TRPA1 expressing CHO cells and MDCK cells using a Flexstation 3 (Molecular Devices). […] Basal emission ratios (340 nm/380 nm) were measured and changes in ratio determined at various times after compound addition.

untransfected CHO cells = experiment: [Ca2+]i in untransfected CHO cells; assay type: cell-based; conditions: untransfected CHO cells or absence of extracellular Ca2+ (data not shown)
Procedure: as §2, §3, §4

beta cells = experiment: [Ca2+]i-responses in pancreatic beta cells; assay type: cell-based, mice; conditions: MG 0.5 mM (Fig. 7A)
Procedure: Mouse islets of Langerhans were isolated from the exocrine pancreas by collagenase digestion (1 mg/ml, type XI, Sigma, Poole, UK). Islets were dissociated by 15 min incubation in trypsin (0.5%, Sigma, Poole, UK) followed by trituration through a flame polished glass Pasteur pipette and the islet cells were seeded on glass cover slips.
Cells were loaded with 2 µM Fura-2 AM (Molecular Probes, Paisley, UK) in the presence of 1 mM probenecid for ∼1 hr. The experiments were performed in a physiological saline solution containing (in mM) 140 NaCl, 5 KCl, 10 glucose, 10 HEPES, 2 CaCl2, and 1 MgCl2, buffered to pH 7.4 with NaOH. Compounds were applied to cells by local continuous microperfusion of solution through a fine tube placed in close proximity of the cells studied. Images of a group of cells were captured every 2 sec using 340 and 380 nm excitation wavelengths with emission measured at 520 nm with a microscope based imaging system (PTI, New Jersey). Analyses of emission intensity ratios at 340 nm/380 nm excitation (R, in individual cells) were performed using the ImageMaster suite of software.

TRPA1 [3] = experiment: Outward TRPA1 currents in absence of Ca2+, effect of DTT; assay type: cell-based; conditions: MG 1 mM, +60 mV, Ca2+-free
Procedure: as §1
It is possible that MG stimulates TRPA1 through formation of reversible hemithioacetals with cysteine residues other than those examined here, [40]. To investigate this possibility we examined the effect of the reducing agent dithiothreitol (DTT, 2 mM) on outward TRPA1 currents recorded in the absence of Ca^2+ (5 mM BAPTA intracellularly, 1 mM EGTA extracellularly) to avoid Ca^2+-mediated inactivation or desensitization. We used DTT to determine whether disulfide bridge formation or reversible noncovalent interactions contribute to the agonist activity of MG. DTT is expected to rapidly reduce cystine bridges to free thiols, but also to form hemithioacetals with MG, thereby accelerating current decay. Covalent modification of arginine and lysine residues by MG and modification of cysteine residues by AITC are on the other hand resistant to DTT [31]. […] This is consistent with the expected oxidative formation of cystine bridges and their reduction by DTT [4]. The contrast between the stable currents produced by H2O2 and the spontaneously reversible currents evoked by MG highlights the reversible nature of the interaction between MG and TRPA1. […] We also observed that repeated applications of MG and H2O2 evoked reproducible current responses of similar amplitudes, whereas an application of AITC prevented subsequent channel activation by AITC challenges (Fig. 4C-E). We conclude that MG acts through a reversible interaction with TRPA1 and that H2O2 relies on DTT sensitive oxidative modification of TRPA1 protein for its activity. […] In contrast, the covalent modification produced by AITC appears irreversible and renders TRPA1 refractory to subsequent activation.

TRPA1 [4] = experiment: Excised inside-out patches, TRPA1 channel activity; assay type: cell-based; conditions: inside-out configuration, applied to intracellular face
Procedure: as §1

[5] = tested on: Trpa1+/+ and Trpa1-/- mice; experiment: Intraplantar injection, pain-related behaviors; assay type: in vivo; conditions: intraplantar 250 nmoles/paw
Procedure: Data shown are from male and female homozygote Trpa1^− ^/− and Trpa1 ^+/+. The Trpa1-null mice and wild-type littermates were bred from heterozygotic mice provided by Drs. Kelvin Kwan and David Corey (Harvard Medical School, Boston, MA).
Methylglyoxal (250 nmoles in 25 µl saline) was injected subcutaneously into the plantar surface of one of the hind paws using a 50 µl luer-syringe (Hamilton Co.) fitted with a 26-gauge x 3/8 inch intradermal needle. Immediately after injection, mice were placed inside a Perspex chamber and the duration of the pain-related behaviors (licking and biting or flinching and shaking of the injected paw) recorded using a digital stop-watch. Total pain response times over the first 2 minutes were used for analysis as the pain behaviors were largely confined to this period. The glyoxalase 1 inhibitor Sr-p-Bromobenzylglutathione cyclopentyl diester (50 mg/kg) was dissolved in 2% DMSO/20% Tween 80 in saline and administered by intraperitoneal (i.p.) injection (5 ml/kg).

DRG neurons = experiment: Voltage clamp recordings of DRG neurons; assay type: cell-based, mice; conditions: -60 mV, 15 µM Ca2+, a proportion of neurons
Procedure: DRG neurons were prepared from adult male or female mice using methods described previously. Isolated neurons were maintained in MEM AQ (5.6 mM glucose) supplemented with 10% fetal bovine serum, 100 U/ml penicillin, 100 µg/ml streptomycin and 50 ng/ml NGF (Promega, Southampton, UK) for less than 24 hours before experimentation.
as §1

- EC50 (TRPA1 [4]): 74 µM
Structure (SMILES): CC(=O)C=O [MG, methylglyoxal]
- whole cell current (TRPA1 [1]): produced inward currents
- effect of substitutions C621S, C641S, C665S on potency of MG [2]: None of these amino acid substitutions affected the potency of MG significantly
- effect on [Ca2+]i (untransfected CHO cells): had no effect
- [Ca2+]i-responses in beta cells (beta cells): evoked [Ca^2+]i-responses in a subpopulation of tolbutamide sensitive beta cells
- number of MG sensitive cells and response amplitude, Trpa1+/+ vs Trpa1-/- cultures (beta cells): similar
- effect of DTT (2 mM) on agonist-evoked TRPA1 current (TRPA1 [3]): dramatically accelerated the TRPA1 current decay
- outward TRPA1 current after removal of agonist (TRPA1 [3]): partially decayed with time after removal of MG
- pain-related behaviors during 2 min after injection [5]: induced a significant nociceptive response
- current in DRG neurons (DRG neurons): evoked robust inward currents

From PMC3805573, “Methylglyoxal Evokes Pain by Stimulating TRPA1” (PLoS ONE, 2013)
